Values of other authors in patent US11859018B2, “Peptoid-based chelating ligands for selective metal chelation” (TRIAD National Security, LLC., priority 2018, dated 2024).

stability constant for the Fe(III) complex, Log(Kβ): 49
SMILES: O=C(N[C@H]1COC(=O)[C@@H](NC(=O)c2cccc(O)c2O)COC(=O)[C@@H](NC(=O)c2cccc(O)c2O)COC1=O)c1cccc(O)c1O [enterobactin]
